Results as given in BindingDB's records for doi:10.1016/j.bmcl.2018.06.027 (Chinese Academy of Science, 2018).

Assay: Inhibition of HIV1 3B protease infected in human MT4 cells assessed as protection from virus induced cytopathogenicity measured after 5 days post infection by MTT assay

Row | SMILES | EC50
1 | CC(C)[C@H](NC(=O)N(C)Cc1c[se]c(-c2ccccc2)n1)C(=O)N[C@@H](Cc1ccccc1)C[C@H](O)[C@H](Cc1ccccc1)NC(=O)OCc1cncs1 | 170 nM
2 | CC(C)c1nc(CN(C)C(=O)N[C@H](C(=O)N[C@@H](Cc2ccccc2)C[C@H](O)[C@H](Cc2ccccc2)NC(=O)OCc2cncs2)C(C)C)c[se]1 | 550 nM
